In patent publication US11014911B2, “CDK2 inhibitors” (Pfizer Inc., priority 2019, dated 2021):

Key:
GSK3β (H350L) = GSK3β (H350L) (Homo sapiens (Human), UniProt P49841); details: read-out: GSK3β Ki
Method: The assay was initiated with the addition of ATP, following 15 minutes pre-incubation of enzyme and inhibitor at room temperature in the reaction mixture. The reaction was stopped after 30 minutes at room temperature by the addition of 50 μL of 80 mM EDTA.

[1] = target: CDK2/Cyclin E1 full length (Homo sapiens (Human), UniProt P24941); assay: CDK2/Cyclin E1 full length mobility shift assay; type: biochemical

GSK3β (H350L), sequence (P49841 whole entry, stated change not applied): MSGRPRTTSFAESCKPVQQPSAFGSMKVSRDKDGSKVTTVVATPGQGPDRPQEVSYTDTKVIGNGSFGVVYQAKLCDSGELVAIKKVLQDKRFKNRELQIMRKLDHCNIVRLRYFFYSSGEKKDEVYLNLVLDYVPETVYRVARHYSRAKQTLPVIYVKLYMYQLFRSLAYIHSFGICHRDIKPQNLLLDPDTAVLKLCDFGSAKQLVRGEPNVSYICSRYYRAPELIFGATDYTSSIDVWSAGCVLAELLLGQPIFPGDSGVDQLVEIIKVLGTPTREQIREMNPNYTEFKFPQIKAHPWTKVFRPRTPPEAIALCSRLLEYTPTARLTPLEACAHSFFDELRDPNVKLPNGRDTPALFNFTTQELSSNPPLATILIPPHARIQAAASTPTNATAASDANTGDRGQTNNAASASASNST

Row | SMILES | Ki (GSK3β (H350L)) | Ki [1]
1 | COc1cc(CC(=O)Nc2cc([C@@H]3CC[C@H](OC(=O)N4C[C@H](O)[C@H]4C)C3)[nH]n2)ccn1 [Example 611, (1S,3R)-3-(3-{[(2-methoxypyridin-4-yl)acetyl]amino}-1H-pyrazol-5-yl)cyclopentyl (2R,3S)-3-hydroxy-2-methylazetidine-1-carboxylate] | 13.9 nM | 1.67 nM
2 | CC[C@H](C)NC(=O)O[C@@H]1CC[C@H](c2cc(NC(=O)Cc3cccc(C)c3S(C)(=O)=O)n[nH]2)C1 [Example 372, (1R,3S)-3-[3-({[3-methyl-2-(methylsulfonyl)phenyl]acetyl}amino)-1H-pyrazol-5-yl]cyclopentyl (2S)-butan-2-ylcarbamate] | 115 nM | 0.85 nM
3 | CCCNC(=O)O[C@H]1CC[C@@H](c2cc(NC(=O)Cc3ccc4[nH]c(C)nc4c3)n[nH]2)C1 [Example 23] | 2.45 nM | 0.11 nM
4 | C[C@]1(O)CC[C@H](NC(=O)O[C@@H]2CC[C@H](c3cc(NC(=O)Cc4cc(F)cc(F)c4)n[nH]3)C2)CC1 [Example 573, (1R,3S)-3-(3-{[(3,5-difluorophenyl)acetyl]amino}-1H-pyrazol-5-yl)cyclopentyl (trans-4-hydroxy-4-methylcyclohexyl)carbamate] | 14.1 nM | 0.83 nM
5 | C[C@H]1CCCN1C(=O)O[C@@H]1CC[C@H](c2cc(NC(=O)Cc3cnco3)n[nH]2)C1 [Example 629, (1R,3S)-3-{3-[(1,3-oxazol-5-ylacetyl)amino]-1H-pyrazol-5-yl}cyclopentyl (2S)-2-methylpyrrolidine-1-carboxylate] | 10.6 nM | 0.4 nM
6 | COc1ccc(S(C)(=O)=O)c(CC(=O)Nc2cc([C@H]3CC[C@@H](OC(=O)NC4(C)CC4)C3)[nH]n2)c1 [Example 447, (1R,3S)-3-[3-({[5-methoxy-2-(methylsulfonyl)phenyl]acetyl}amino)-1H-pyrazol-5-yl]cyclopentyl (1-methylcyclopropyl)carbamate] | > 47.6 nM | 0.36 nM
7 | COCCn1nccc1C(=O)Nc1cc([C@H]2CC[C@@H](OC(=O)N3CC[C@@H]3C)C2)[nH]n1 [Example 594, (1R,3S)-3-[3-({[1-(2-methoxyethyl)-1H-pyrazol-5-yl]carbonyl}amino)-1H-pyrazol-5-yl]cyclopentyl (2S)-2-methylazetidine-1-carboxylate] | 14.3 nM | 0.62 nM
8 | CCCNC(=O)O[C@@H]1CC[C@H](c2cc(NC(=O)c3cc(C)nn3C)n[nH]2)C1 [Example 173, (1R,3S)-3-(3-{[(1,3-dimethyl-1H-pyrazol-5-yl)carbonyl]amino}-1H-pyrazol-5-yl)cyclopentyl propylcarbamate] | > 191 nM | 2.29 nM
9 | CC[C@H](C)NC(=O)O[C@@H]1CC[C@H](c2cc(NC(=O)Cc3cn4ccsc4n3)n[nH]2)C1 [Example 355, (1R,3S)-3-{3-[(imidazo[2,1-b][1,3]thiazol-6-ylacetyl)amino]-1H-pyrazol-5-yl}cyclopentyl (2S)-butan-2-ylcarbamate] | 18.1 nM | 1.13 nM
10 | Cc1cc(CC(=O)Nc2cc([C@H]3CC[C@@H](OC(=O)NC(C)(C)C)C3)[nH]n2)no1 [Example 295, (1R,3S)-3-(3-{[(5-methyl-1,2-oxazol-3-yl)acetyl]amino}-1H-pyrazol-5-yl)cyclopentyl tert-butylcarbamate] | 56.1 nM | 0.38 nM
11 | CCN(C)C(=O)O[C@H]1CC[C@@H](c2cc(NC(=O)Cc3ccnc(OC)c3)n[nH]2)C1 [Example 241, (1S,3R)-3-(3-{[(2-methoxypyridin-4-yl)acetyl]amino}-1H-pyrazol-5-yl)cyclopentyl ethyl(methyl)carbamate] | 13.4 nM | 1.04 nM
12 | CC[C@H](C)NC(=O)O[C@@H]1CC[C@H](c2cc(NC(=O)Cc3sc(C)nc3C)n[nH]2)C1 [Example 352, (1R,3S)-3-(3-{[(2,4-dimethyl-1,3-thiazol-5-yl)acetyl]amino}-1H-pyrazol-5-yl)cyclopentyl (2S)-butan-2-ylcarbamate] | 58.4 nM | 0.82 nM
13 | COc1ccc(CC(=O)Nc2cc([C@H]3CC[C@@H](OC(=O)N(C)C(C)C)C3)[nH]n2)cn1 [Example 59] | 2.89 nM | 0.15 nM
14 | CC(C)(C)NC(=O)O[C@@H]1CC[C@H](c2cc(NC(=O)Cc3ccccn3)n[nH]2)C1 [Example 294, (1R,3S)-3-{3-[(pyridin-2-ylacetyl)amino]-1H-pyrazol-5-yl}cyclopentyl tert-butylcarbamate] | 32 nM | 0.62 nM
15 | Cc1cnc(CC(=O)Nc2cc([C@H]3CC[C@@H](OC(=O)NC(C)(C)CC(F)(F)F)C3)[nH]n2)o1 [Example 95] | 32.2 nM | 0.25 nM
16 | Cc1cnc(CC(=O)Nc2cc([C@H]3CC[C@@H](OC(=O)NC(C)(C)C)C3)[nH]n2)o1 [Example 11, (1R,3S)-3-(3-{[(5-methyl-1,3-oxazol-2-yl)acetyl]amino}-1H-pyrazol-5-yl)cyclopentyl tert-butylcarbamate] | 36.2 nM | 0.32 nM
17 | Cc1cnc(CC(=O)Nc2cc([C@H]3CC[C@@H](OC(=O)N4CCC4(C)C)C3)[nH]n2)o1 [Example 147] | 6.87 nM | 0.25 nM

Row | SMILES | Ki (GSK3β (H350L)) | Ki [1]
18 | COc1ccc(S(C)(=O)=O)c(CC(=O)Nc2cc([C@H]3CC[C@@H](OC(=O)NC(C)(C)C)C3)[nH]n2)c1 [Example 319, (1R,3S)-3-[3-({[5-methoxy-2-(methylsulfonyl)phenyl]acetyl}amino)-1H-pyrazol-5-yl]cyclopentyl tert-butylcarbamate] | 123 nM | 0.39 nM
19 | C[C@H]1[C@H](O)CN1C(=O)O[C@@H]1CC[C@H](c2cc(NC(=O)Cc3cc(F)cc(F)c3)n[nH]2)C1 [Example 617, (1R,3S)-3-(3-{[(3,5-difluorophenyl)acetyl]amino}-1H-pyrazol-5-yl)cyclopentyl (2S,3R)-3-hydroxy-2-methylazetidine-1-carboxylate] | 7.18 nM | 0.27 nM
20 | CC(C)NC(=O)O[C@H]1CC[C@@H](c2cc(NC(=O)Cc3cnn(C)c3)n[nH]2)C1 [Example 266, (1S,3R)-3-(3-{[(1-methyl-1H-pyrazol-4-yl)acetyl]amino}-1H-pyrazol-5-yl)cyclopentyl propan-2-ylcarbamate] | 32.6 nM | 0.39 nM
21 | CO[C@@H]1CN(C(=O)O[C@@H]2CC[C@H](c3cc(NC(=O)Cc4cc(C)no4)n[nH]3)C2)[C@H]1C [Example 618, (1R,3S)-3-(3-{[(3-methyl-1,2-oxazol-5-yl)acetyl]amino}-1H-pyrazol-5-yl)cyclopentyl (2S,3R)-3-methoxy-2-methylazetidine-1-carboxylate] | 8.57 nM | 0.78 nM
22 | CC[C@H](C)NC(=O)O[C@@H]1CC[C@H](c2cc(NC(=O)Cc3ccc4ncc(C)n4n3)n[nH]2)C1 [Example 46] | 20.6 nM | 0.18 nM
23 | CCCNC(=O)O[C@@H]1CC[C@H](c2cc(NC(=O)c3ccc(C)nc3C)n[nH]2)C1 [Example 181, (1R,3S)-3-(3-{[(2,6-dimethylpyridin-3-yl)carbonyl]amino}-1H-pyrazol-5-yl)cyclopentyl propylcarbamate] | > 191 nM | 3.91 nM
24 | CCCNC(=O)O[C@@H]1CC[C@H](c2cc(NC(=O)Cc3cncs3)n[nH]2)C1 [Example 179, (1R,3S)-3-{3-[(1,3-thiazol-5-ylacetyl)amino]-1H-pyrazol-5-yl}cyclopentyl propylcarbamate] | 13.5 nM | 0.54 nM
25 | CC[C@H](C)NC(=O)O[C@@H]1CC[C@H](c2cc(NC(=O)c3cnnn3C)n[nH]2)C1 [Example 4, (1R,3S)-3-(3-{[(1-methyl-1H-1,2,3-triazol-5-yl)carbonyl]amino}-1H-pyrazol-5-yl)cyclopentyl (2S)-butan-2-ylcarbamate] | 110 nM | 0.1 nM
26 | Cc1cc(CC(=O)Nc2cc([C@H]3CC[C@@H](OC(=O)NC(C)(C)C)C3)[nH]n2)on1 [Example 107] | 27.1 nM | 0.19 nM
27 | CC[C@H](C)NC(=O)O[C@@H]1CC[C@H](c2cc(NC(=O)c3cncn3C)n[nH]2)C1 [Example 321, (1R,3S)-3-(3-{[(1-methyl-1H-imidazol-5-yl)carbonyl]amino}-1H-pyrazol-5-yl)cyclopentyl (2S)-butan-2-ylcarbamate] | > 191 nM | 0.63 nM
28 | CCCNC(=O)O[C@H]1CC[C@@H](c2cc(NC(=O)Cc3ccccc3S(C)(=O)=O)n[nH]2)C1 [Example 203, (1S,3R)-3-[3-({[2-(methylsulfonyl)phenyl]-acetyl}amino)-1H-pyrazol-5-yl]cyclopentyl propylcarbamate] | 34.2 nM | 0.29 nM
29 | CCCNC(=O)O[C@H]1CC[C@@H](c2cc(NC(=O)Cc3cnc(OC)s3)n[nH]2)C1 [Example 189, (1S,3R)-3-(3-{[(2-methoxy-1,3-thiazol-5-yl)acetyl]amino}-1H-pyrazol-5-yl)cyclopentyl propylcarbamate] | 11.4 nM | 0.38 nM
30 | C[C@]1(O)CC[C@@H](NC(=O)O[C@H]2CC[C@@H](c3cc(NC(=O)Cc4ccccc4)n[nH]3)C2)CC1 [Example 558, (1S,3R)-3-{3-[(phenylacetyl)amino]-1H-pyrazol-5-yl}cyclopentyl (cis-4-hydroxy-4-methylcyclohexyl)carbamate] | 18.6 nM | 0.41 nM
31 | CC[C@H](C)NC(=O)O[C@@H]1CC[C@H](c2cc(NC(=O)Cc3cnn(C)c3)n[nH]2)C1 [Example 327, (1R,3S)-3-(3-{[(1-methyl-1H-pyrazol-4-yl)acetyl]amino}-1H-pyrazol-5-yl)cyclopentyl (2S)-butan-2-ylcarbamate] | 57.8 nM | 0.44 nM
32 | O=C(Cc1cc(F)cc(F)c1)Nc1cc([C@@H]2CC[C@H](OC(=O)N[C@H]3CC[C@H](O)CC3)C2)[nH]n1 [Example 28] | 4.5 nM | 0.18 nM
33 | CC[C@H](C)NC(=O)O[C@@H]1CC[C@H](c2cc(NC(=O)Cc3ccc(C)nc3)n[nH]2)C1 [Example 35] | 12.5 nM | 0.22 nM
34 | CC[C@H](C)NC(=O)O[C@@H]1CC[C@H](c2cc(NC(=O)Cc3ccnc(C)c3)n[nH]2)C1 [Example 335, (1R,3S)-3-(3-{[(2-methylpyridin-4-yl)acetyl]amino}-1H-pyrazol-5-yl)cyclopentyl (2S)-butan-2-ylcarbamate] | 23.9 nM | 0.41 nM
